Results reported in USRE42890E1, “Furazanobenzimidazoles” (Basilea Pharmaceutica AG, priority 2003, dated 2011).
pIC50: −log10 of the molar value.

Legend:
[1] = system: MRC5; experiment: MTS proliferation assay, MRC5; format: cell-based; details: MRC5, 72 h incubation; read-out: MTS proliferation assay IC 50 MRC5
How it was run: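 Antiproliferative read-out by MTS (3 h, A492) after 72 h compound exposure at final 0.3–10 μM (four concentrations). Cells were plated 24 h earlier in RPMI-1640 containing 5% or 10% FCS, cultured at 37 °C with 7.5% CO2.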

[2] = system: adherent cells or suspension cells; experiment: Hoechst 33342 nuclear staining (fraction of apoptotic nuclei); format: cell-based; parameters: key: 0 relating to no activity; 1 relating to weak activity comprising less than 70% of the cells; score 2 relating to strong activity comprising more than 70% of the cells
Protocol: (§1) Cell lines are cultured in RPMI-1640 tissue culture medium containing either 5% or 10% fetal calf serum, 0.05 mM 2-mercaptoethanol, 2 mM glutamine and penicillin/streptomycin 50 μg/ml (complete medium) (Sigma, Buchs, Switzerland). General growth conditions are 37° C. and 7.5% CO2.
This assay is performed in 96 well tissue culture plates. Appropriate number of cells (adherent cells: 3-5*10^3, suspension cells: 8-10*10^3) are being seeded out in 80 μl complete medium. Adherent cells are incubated for 24 h for proper spreading out before addition of test compounds while suspension cells are immediately treated with test compounds after seeding out. The test compounds are added in 20 μl complete medium containing max 5% DMSO. […] After 24 h or 48 h incubation at culture conditions, 10 μl medium containing Hoechst 33342 dye (Sigma B-2261) at 2-5 μg/ml are added to each well. The assay plates are then further incubated for 30 minutes and subsequently analyzed with a standard inverted fluorescence microscope.
The readout allows the determination of the fraction of apoptotic nuclei as well as other morphological criteria specific for apoptosis as a function of the treatment. The following scores are used: 0 relating to no activity, 1 relating to weak activity comprising less than 70% of the cells and score 2 relating to strong activity comprising more than 70% of the cells.

[3] = system: HeLa; experiment: MTS proliferation assay, HeLa; format: cell-based, human; details: 72 h incubation, read-out: MTS proliferation assay IC 50 HeLa
How it was run: (§2)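 Absorbance at 492 nm after 3 h with MTS reagent gave proliferation. This followed 72 h compound exposure (final 0.3, 1, 3, 10 μM) at 37 °C and 7.5% CO2. Cells had been plated 24 h earlier in complete RPMI-1640 with 5% or 10% FCS.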

[4] = system: HT1080; experiment: MTS proliferation assay, HT1080; format: cell-based, human; details: HT1080, 72 h incubation; read-out: MTS proliferation assay IC 50 HT1080
Protocol: as §1
The following human cell lines (either EGFP transfected or not) are being used: HeLa (ATCC: CCL-2), KB (ATCC: CCL-17), MCF7 (ATCC: HTB-22), SK-BR-3 (ATCC: HTB-30), SK-Mel 1 (ATCC: HTB-67), SK-Mel 28 (ATCC: HTB-72), PC-3 (ATCC: CRL-1435), SW 480 (ATCC: CCL-228), NCl-H460 (ATCC: HTB-177), NCl-H1792 (ATCC: CRL-5895), HT1080 (ATCC: CCL-21), Jurkat (ATCC: TIB-152), Ramos (ATCC: CRL-1596), Raji (ATCC: CCL-86), H9 (ATCC: HTB-176), Hut78 (ATCC: TIB-161), K562 (ATCC: CCL 243), HL-60 (ATCC: CCL 240), U-87MG (ATCC: HTB-14), HepG2 (ATCC: HB-8065), U-2 OS (ATCC: HTB-96), Saos-2 (ATCC: HTB-85), U937 (ATCC: CRL 1593), Hs 578T (ATCC: HTB 126), HBL-100 (ATCC: HTB 124), Molt-4 (ATCC: CRL 1582).
The assay is performed in 96 well tissue culture plates. The cells (range: 1.5*10^3-10^4) are seeded out in 80 μl complete medium 24 h prior to compound treatment. The test compounds are added in 20 μl complete medium containing max 5% DMSO. The final compound concentrations in the assays are 10 μM, 3 μM, 1 μM and 0.3 μM, respectively. The assay plates are incubated for 72 h at culture conditions. The MTS reagent is prepared according to the manufacturer's protocol (Promega G1111). 20 μl MTS reagent are added to each well, the assay plates are quickly spun and incubated for another 3 h at culture conditions. Subsequently, the plates are shortly shaked and absorption measured with a microplate-reader at 492 nm.

[5] = system: Jurkat; experiment: MTS proliferation assay, Jurkat; format: cell-based, human; details: 72 h incubation, read-out: MTS proliferation assay IC 50 Jurkat
How it was run: as §2

| Compound | pIC50 [1] | Hoechst 33342 nuclear staining score ([2]; H460, conc 0.01 μm) | Hoechst 33342 nuclear staining score ([2]; H460, conc 0.1 μm) | Hoechst 33342 nuclear staining score ([2]; H460, conc 1 μm) | Hoechst 33342 nuclear staining score ([2]; HeLa, conc 0.01 μm) | Hoechst 33342 nuclear staining score ([2]; HeLa, conc 0.1 μm) | Hoechst 33342 nuclear staining score ([2]; HeLa, conc 1 μm) | Hoechst 33342 nuclear staining score ([2]; Jily, conc 0.01 μm) | Hoechst 33342 nuclear staining score ([2]; Jily, conc 0.1 μm) | Hoechst 33342 nuclear staining score ([2]; Jily, conc 1 μm) | Hoechst 33342 nuclear staining score ([2]; Jurkat, conc 0.01 μm) | Hoechst 33342 nuclear staining score ([2]; Jurkat, conc 0.1 μm) | Hoechst 33342 nuclear staining score ([2]; Jurkat, conc 1 μm) | Hoechst 33342 nuclear staining score ([2]; MRC5, conc 0.01 μm) | Hoechst 33342 nuclear staining score ([2]; MRC5, conc 0.1 μm) | Hoechst 33342 nuclear staining score ([2]; MRC5, conc 1 μm) | Hoechst 33342 nuclear staining score ([2]; PBLs, conc 0.01 μm) | Hoechst 33342 nuclear staining score ([2]; PBLs, conc 0.1 μm) | Hoechst 33342 nuclear staining score ([2]; PBLs, conc 1 μm) | pIC50 [3] | further results |
| --- | --- | --- | --- | --- | --- | --- | --- | --- | --- | --- | --- | --- | --- | --- | --- | --- | --- | --- | --- | --- | --- |
| COc1cc2nc(-c3nonc3N)n(CC(=O)c3ccccc3)c2cc1OC [Example 113] | < 6.00 | 0 | 0 | 0 | 0 | 0 | 0 | 0 | 0 | 0 | 0 | 0 | 0 | 0 | 0 | 0 | 0 | 0 | 0 | < 6.00 | pIC50 [4]: < 6.00; pIC50 [5]: < 6.00 |
| COc1ccc(C(=O)Cn2c(-c3nonc3N)nc3cc(OC)c(OC)cc32)cc1 [Example 116] | < 6.00 | 0 | 0 | 0 | 0 | 0 | 0 | 0 | 0 | 0 | 0 | 0 | 0 | 0 | 0 | 0 | 0 | 0 | 0 | < 6.00 | pIC50 [4]: < 6.00; pIC50 [5]: < 6.00 |
| COc1cc2nc(-c3nonc3N)n(CC(=O)c3ccc(-c4ccccc4)cc3)c2cc1OC [Example 117] | < 6.00 | 0 | 0 | 0 | 0 | 0 | 0 | 0 | 0 | 0 | 0 | 0 | 0 | 0 | 0 | 0 | 0 | 0 | 0 | < 6.00 | pIC50 [4]: < 6.00; pIC50 [5]: < 6.00 |
| COc1cc2nc(-c3nonc3N)n(CC(=O)c3ccc(Cl)cc3)c2cc1OC [Example 114] | < 6.00 | 0 | 0 | 0 | 0 | 0 | 0 | 0 | 0 | 0 | 0 | 0 | 0 | 0 | 0 | 0 | 0 | 0 | 0 | < 6.00 | pIC50 [4]: < 6.00; pIC50 [5]: < 6.00 |
| COc1cc2nc(-c3nonc3N)n(CC(=O)c3ccc(Br)cc3)c2cc1OC [Example 115] | < 6.00 | 0 | 0 | 0 | 0 | 0 | 0 | 0 | 0 | 0 | 0 | 0 | 0 | 0 | 0 | 0 | 0 | 0 | 0 | < 6.00 | pIC50 [4]: < 6.00; pIC50 [5]: < 6.00 |
| COc1ccc(C(=O)Cn2c(-c3nonc3N)nc3cc(C)c(C)cc32)cc1 [Example 111] | < 6.00 | 0 | 0 | 0 | 0 | 0 | 0 | 0 | 0 | 0 | 0 | 0 | 0 | 0 | 0 | 0 | 0 | 0 | 0 | < 6.00 | pIC50 [4]: < 6.00; pIC50 [5]: < 6.00 |
| Cc1cc2nc(-c3nonc3N)n(CC(=O)c3ccc(Cl)cc3)c2cc1C [Example 110] | < 6.00 | 0 | 0 | 0 | 0 | 0 | 0 | 0 | 0 | 0 | 0 | 0 | 0 | 0 | 0 | 0 | 0 | 0 | 0 | < 6.00 | pIC50 [4]: < 6.00; pIC50 [5]: < 6.00 |
